Laboratory results reported in patent US8927594B2, “Compounds from soft coral, method of preparation and pharmaceutical uses thereof” (National Sun Yat-Sen University, priority 2010, dated 2015).

Columns and labels:
iNOS = iNOS protein expression in LPS-stimulated RAW264.7 macrophage cells, immunoblot analysis; assay type: cell-based, mouse; details: for levels of iNOS protein relative to control cells stimulated with LPS only: concentration of 10 mM (so in the source), LPS alone = 100%, mean±SEM, n=6; for effect on expression of inducible nitric oxide synthase of macrophage cells stimulated with LPS (in words, summary): concentration not stated; for effect on expression of iNOS protein relative to control cells stimulated with LPS only (in words): FIG. 2
Experimental: (§1) A mouse macrophage cell line, RAW 264.7, purchased from the American Type Culture Collection (ATCC, No TIB-71) was chosen in the in vitro model. The cells were cultured in DMEM (Dulcbecco/s Modified Eagle medium) containing 10% fetal bovine serum (FBS) and penicillin G (100 U/ml) and streptomycin (100 μg/ml) at 37° C. and 5% CO2. When reaching 80% confluence, the cells were subcultured with trypsin. The cells were subjected to an anti-inflammation assay after subcultured for 36 hours. 3×10^6 RAW264.7 cells were cultured in a 10-cm culture dish and administered with lipopolysaccharide (LPS, 0.01 μg/ml; Sigma L2654). After 16 hours, the cells were collected. In an experiment group, the compound represented by formula 3 was added into the culture dish and followed by LPS before 10 minutes.
(§2) The collected RAW264.7 cells were dissolved with 200 μL of 4° C. lysis buffer (50 mM Tris [pH 7.5], 150 mM NaCl, 1% TritonX-100, 0.1 mM EDTA, 0.1 mM EGTA, 10 μg PMSF, 1 aprotinin, 20 mM NaF, and 0.2 mM Na3VO4). The samples were centrifuged at 25,000 g for 30 minutes at 4° C. for removing the pellet. The supernatant was assayed with Bio-Rad DC protein assay kit (Bio-Rad Laboratories, Hercules, Calif., USA) and the absorbance was read with an ELISA reader (Thermo Electron Corporation, USA) for estimating the protein contents. The calibrated samples with equal volumes were added with a sample buffer (2% SDS, 10% glycerol, 0.1% bromophenol blue, 10% 2-mercaptoethanol, and 50mM Tris) of the same volume. Proteins were separated with 10% SDS-PAGE and transferred to a PVDF membrane ([…], Immobilon-P, Millipore, Bedford, Mass., USA) (1.5 A, 4° C., 2.5 hours). The transferred PVDF membranes were blocked with TTBS (Tris-HCl 20 mM, NaCl 137 mM, pH 7.4 and 0.1% Tween 20) containing 5% skim milk at room temperature for 1 hour and reacted with polyclonal anti-inducible nitric oxide synthase antibody (Transduction Laboratories, Lexington, Ky., USA) or polyclonal anti-cyclooxygenase-2 antibody (Cayman, Ann Arbor, Mich., USA) at room temperature for 3 hours. After washed with TTBS three times, the samples were reacted with HRP-conjugated anti-rabbit IgG antibody (1:2000) at room temperature for 1 hour. After washed with TTBS for three times, an enhanced chemiluminescence detection kit was used for reating with the PVDF membrane and exposed with an X-ray film (Kodak X-OMAT LS, Kodak, Rochester, N.Y., USA) for detecting the protein expression. The relative amount was calculated with Image-Pro plus 4.5 software (Media Cybernetics, Silver Spring, USA). The group added with only LPS was taken as 100%. β-actin (monoclonal antibody, Sigma, St Louis, Mo., USA) was taken as an internal control.

COX-2 = COX-2 protein expression in LPS-stimulated RAW264.7 macrophage cells, immunoblot analysis; assay type: cell-based, mouse; details: for effect on expression of cyclooxygenase-2 of macrophage cells stimulated with LPS (in words, summary): concentration not stated; for effect on COX-2 expression with LPS treatment (in words): FIG. 2
Experimental: as §1, §2

[1] = Cytotoxicity, MTT colorimetric method, Hep G2; assay type: cell-based; details: human, Hep G2 cells (hepatocellular carcinoma)
Experimental: (§3) Cell lines were purchased from the American Type Culture Collection (ATCC). Cytotoxicity assays were performed using the MTT [3-(4,5-dimethylthiazol-2-yl)-2,5-diphenyltetrazolium bromide] colorimetric method.

[2] = Cytotoxicity, MTT colorimetric method, Hep 3B; assay type: cell-based; details: human, Hep 3B cells (hepatocellular carcinoma)
Experimental: as §3

[3] = Cytotoxicity, MTT colorimetric method, MDA-MB-231; assay type: cell-based; details: human, MDA-MB-231 cells (breast carcinoma)
Experimental: as §3

[4] = Cytotoxicity, MTT colorimetric method, MCF-7; assay type: cell-based; details: human, MCF-7 cells (breast carcinoma)
Experimental: as §3

[5] = Cytotoxicity, MTT colorimetric method, A549; assay type: cell-based; details: human, A549 cells (lung carcinoma)
Experimental: as §3

[6] = Cytotoxicity, MTT colorimetric method, Ca9-22; assay type: cell-based; details: human, Ca9-22 cells (gingival carcinoma)
Experimental: as §3

[7] = 10 μM, RAW264.7 cells + LPS, same experimental condition

O=C(/C=C/c1ccc(O)c(O)c1)OCCc1ccccc1 [CAPE, caffeic acid phenylethyl ester, reference compound]
level of iNOS, relative intensity (LPS alone = 100%) (iNOS; [7]): 2.5±3.7% | level of COX-2, relative intensity (LPS alone = 100%) (COX-2; [7]): 67.2±13.4%

CCCC(=O)O[C@]1(C)CCC[C@@](C)([S+](C)[O-])C[C@H]2O[C@@H]1[C@H]1[C@@H]2[C@](C)(OC(C)=O)CC[C@@H]1C(C)C (stereo partly shown) [formula 2]
levels of iNOS protein relative to control cells stimulated with LPS only (iNOS; RAW264.7 cells + LPS): 8.8±1.0% | effect on expression of inducible nitric oxide synthase of macrophage cells stimulated with LPS (in words, summary) (iNOS): significantly lowered

CCCC(=O)O[C@H]1[C@H](C(C)C)[C@@H]2[C@@H]([C@H]3C[C@](C)([S+](C)[O-])CCC[C@@](C)(OC(=O)CCC)[C@@H]2O3)[C@](C)(O)[C@@H]1OC(C)=O (stereo partly shown) [formula 3]
levels of iNOS protein relative to control cells stimulated with LPS only (iNOS; RAW264.7 cells + LPS): 17.8±4.7% | effect on expression of inducible nitric oxide synthase of macrophage cells stimulated with LPS (in words, summary) (iNOS): significantly lowered

C=C1C[C@H]2O[C@H]([C@@H]3[C@@H](C(C)C)[C@H](OC(=O)CC[S+](C)[O-])[C@@H](OC(C)=O)[C@@](C)(O)[C@@H]32)[C@](C)(OC(=O)CCC)CC[C@@H]1O (stereo partly shown) [formula 4]
levels of iNOS protein relative to control cells stimulated with LPS only (iNOS; RAW264.7 cells + LPS): 11.3±1.5% | effect on expression of inducible nitric oxide synthase of macrophage cells stimulated with LPS (in words, summary) (iNOS): significantly lowered | COX-2 expression relative to control cells stimulated with LPS only (COX-2; concentration of 10 mM (so in the source), RAW264.7 cells + LPS, LPS alone = 100%, mean±SEM, n=6): 7.2±2.5% | effect on expression of cyclooxygenase-2 of macrophage cells stimulated with LPS (in words, summary) (COX-2): significantly lowered

CCCC(=O)O[C@]1(C)CC[C@H](OC(C)=O)[C@@](C)(O)C[C@H]2O[C@@H]1[C@@H]1[C@@H](C(C)C)[C@H](OC(C)=O)[C@@H](OC(C)=O)[C@@](C)(O)[C@@H]12 [formula 11]
effect on expression of iNOS protein relative to control cells stimulated with LPS only (in words) (iNOS; 10 μM, RAW264.7 cells + LPS): enhance the expression | effect on COX-2 expression with LPS treatment (in words) (COX-2; 10 μM, RAW264.7 cells + LPS): enhance the expression

C/C1=C/[C@@H]2[C@@H](C(C)C)CC[C@@](C)(O)[C@@H]2CC/C(C)=C/CC1 [formula 14]
effect on expression of iNOS protein relative to control cells stimulated with LPS only (in words) (iNOS; 10 μM, RAW264.7 cells + LPS): significantly reduce | effect on expression of inducible nitric oxide synthase of macrophage cells stimulated with LPS (in words, summary) (iNOS): significantly reduce | effect on COX-2 expression with LPS treatment (in words) (COX-2; 10 μM, RAW264.7 cells + LPS): effectively reduce | effect on expression of cyclooxygenase-2 of macrophage cells stimulated with LPS (in words, summary) (COX-2): effectively reduce

C=C1CC[C@@H](O)[C@]2(C)C[C@H](OC(C)=O)[C@@H]3[C@@H]([C@@H](C(C)C)CC[C@@]3(C)O)[C@H]12 [formula 16]
IC50 [1]: 12.5 µg/mL | IC50 [2]: 9.6 µg/mL | IC50 [3]: 16 µg/mL | IC50 [4]: 9.9 µg/mL | IC50 [5]: 15.3 µg/mL | IC50 [6]: 13.6 µg/mL
